Measured values taken from patent US12071411B2, “Inhibitors of HIF-2α and methods of use thereof” (ARCUS BIOSCIENCES, INC., priority 2021, dated 2024).

Experiments:
[1] = molecular target: T1, HIF-2α (Homo sapiens, UniProt Q99814); experiment: HIF-2α Luciferase Reporter Assay (serum), HRE-luciferase 786-0 cells in 100% human serum; format: cell-based; settings: for IC50: 100% human serum, 786-0 reporter cells, overnight incubation, read-out: Serum Potency; for Serum Shift (approximate): ratio of IC50 in 100% serum to IC50 in serum free conditions
Procedure, shortened: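 786-0 cells stably expressing an HRE-luciferase reporter were plated and rested 3 h. They were then treated overnight at 37 °C with compound diluted in 100% human serum. Serum was replaced with Opti-MEM, ONE-Glo luminescence was read, and IC50 came from a 4-parameter logistic fit.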

[2] = molecular target: T1, HIF-2α; experiment: HIF-2α Luciferase Reporter Assay (serum free) in HIF-Luc-786-0 cells; format: cell-based; settings: Opti-MEM, 786-0 reporter cells, 20 hours incubation
Procedure, shortened: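 786-0 cells stably transduced with HIF luciferase reporter, 20,000 cells/well in serum-free Opti-MEM, compounds (50 uM downward, 1% DMSO) 20 h at 37 °C. ONE-Glo luminescence normalized to DMSO and no-cell controls; IC50 from four-parameter fit.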

T1 sequence (Q99814 whole entry): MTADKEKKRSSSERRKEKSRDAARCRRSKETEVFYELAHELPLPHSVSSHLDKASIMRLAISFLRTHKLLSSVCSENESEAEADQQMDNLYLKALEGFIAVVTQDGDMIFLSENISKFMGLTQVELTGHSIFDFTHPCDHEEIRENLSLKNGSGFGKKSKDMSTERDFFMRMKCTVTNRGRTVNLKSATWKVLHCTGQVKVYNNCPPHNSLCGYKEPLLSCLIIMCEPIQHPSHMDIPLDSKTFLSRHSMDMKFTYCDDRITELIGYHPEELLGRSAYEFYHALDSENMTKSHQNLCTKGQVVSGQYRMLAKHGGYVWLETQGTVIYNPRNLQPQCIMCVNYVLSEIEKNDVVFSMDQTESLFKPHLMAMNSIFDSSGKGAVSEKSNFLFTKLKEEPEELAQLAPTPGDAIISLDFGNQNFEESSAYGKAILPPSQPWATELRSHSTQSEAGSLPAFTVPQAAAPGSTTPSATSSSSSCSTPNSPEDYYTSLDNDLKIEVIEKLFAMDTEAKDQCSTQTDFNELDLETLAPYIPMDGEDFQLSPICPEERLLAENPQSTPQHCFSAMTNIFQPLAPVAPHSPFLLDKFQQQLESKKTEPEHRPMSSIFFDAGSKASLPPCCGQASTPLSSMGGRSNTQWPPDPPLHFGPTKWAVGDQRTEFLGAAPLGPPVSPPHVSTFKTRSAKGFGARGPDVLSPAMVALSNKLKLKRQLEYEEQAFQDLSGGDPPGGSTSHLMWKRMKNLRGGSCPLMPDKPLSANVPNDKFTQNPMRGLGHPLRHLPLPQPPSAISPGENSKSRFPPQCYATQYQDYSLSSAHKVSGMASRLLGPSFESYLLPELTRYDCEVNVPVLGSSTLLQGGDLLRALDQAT

Structure (SMILES)	IC50 [1] [µM]	Serum Shift (approximate) [1]	IC50 [2] [µM]
O[C@H]1c2c(C(F)(F)F)nn([C@H]3CC[C@@H](F)[C@@H](F)C3)c2CC1(F)F (racemic) [91 DIAST-2, (4S)-1-[(rel-1S,3S,4R)-3,4-difluorocyclohexyl]-5,5-difluoro-3-(trifluoromethyl)-4,6-dihydrocyclopenta[c]pyrazol-4-ol]	> 1	9	< 0.1
C[C@H](C#N)CCn1nc(C(F)(F)F)c2c1CCC(F)(F)[C@H]2O [Example 100, (2S)-4-[(4S)-5,5-difluoro-4-hydroxy-3-(trifluoromethyl)-6,7-dihydro-4H-indazol-1-yl]-2-methylbutanenitrile]	> 1	4	0.1 to 1
O[C@H]1c2c(C(F)(F)F)nn(CCCC(F)(F)F)c2[C@H](F)C1(F)F (single isomer, unassigned) [Example 124]	> 1	11	< 0.1
O[C@H]1c2c(C(F)(F)F)nn([C@H]3C[C@]4(CC4(F)F)C3)c2CC1(F)F [Example 65, (4S)-5,5-difluoro-1-[(3s,5s)-1,1-difluorospiro[2.3]hexan-5-yl]-3-(trifluoromethyl)-4,6-dihydrocyclopenta[c]pyrazol-4-ol]	> 1	11	0.1 to 1
O[C@H]1c2c(C(F)(F)F)nn(CCc3cnoc3)c2CC1(F)F [Example 75, (4S)-5,5-difluoro-1-[2-(1,2-oxazol-4-yl)ethyl]-3-(trifluoromethyl)-4,6-dihydrocyclopenta[c]pyrazol-4-ol]	> 1	5	< 0.1
O[C@H]1c2c(C(F)(F)F)nn(C3CCC(F)(F)CC3)c2[C@@H](F)[C@H]1F [Example 132, (4S,5S,6R)-1-(4,4-difluorocyclohexyl)-5,6-difluoro-3-(trifluoromethyl)-5,6-dihydro-4H-cyclopenta[c]pyrazol-4-ol]	> 1	8	< 0.1
O[C@H]1c2c(C(F)(F)F)nn(CCCOC(F)(F)F)c2[C@H](F)CC1(F)F (single isomer, unassigned) [129/130 DIAST-2]	> 1	17	0.1 to 1
O[C@H]1c2c(C(F)(F)F)nn(CCCOC(F)(F)F)c2C[C@@H]1F [Example 63, (4S,5S)-5-fluoro-1-[3-(trifluoromethoxy)propyl]-3-(trifluoromethyl)-5,6-dihydro-4H-cyclopenta[c]pyrazol-4-ol]	> 1	4	0.1 to 1
O[C@H]1c2c(C(F)(F)F)nn(C3COCC(F)(F)C3)c2CC1(F)F (stereo partly drawn) [Example 85, (4S)-1-(5,5-difluorooxan-3-yl)-5,5-difluoro-3-(trifluoromethyl)-1H,4H,5H,6H-cyclopenta[c]pyrazol-4-ol]	> 1	6	0.1 to 1
O[C@H]1c2c(C(F)(F)F)nn([C@H]3C[C@H](F)C[C@H](F)C3)c2CC1(F)F [Example 71, (4S)-1-[(3R,5S)-3,5-difluorocyclohexyl]-5,5-difluoro-3-(trifluoromethyl)-4,6-dihydrocyclopenta[c]pyrazol-4-ol]	> 1	18	< 0.1
O[C@H]1c2c(C(F)(F)F)nn(C3CCC(F)(F)C3)c2CC1(F)F (mixture of isomers) [Example 54, (4S)-1-(3,3-difluorocyclopentyl)-5,5-difluoro-3-(trifluoromethyl)-4,6-dihydrocyclopenta[c]pyrazol-4-ol]	> 1	5	0.1 to 1
O[C@H]1c2c(C(F)(F)F)nn(CCCC(F)(F)F)c2[C@H](F)[C@H]1F [Example 139, (4S,5S,6S)-5,6-difluoro-1-(4,4,4-trifluorobutyl)-3-(trifluoromethyl)-5,6-dihydro-4H-cyclopenta[c]pyrazol-4-ol]	> 1	6	< 0.1
O[C@H]1c2c(C(F)(F)F)nn(C3CC4(C3)CC(F)(F)C4)c2[C@H](F)[C@H]1F (single isomer, unassigned) [Example 135]	> 1	12	< 0.1
O[C@H]1c2c(C(F)(F)F)nn([C@H]3C[C@H](COC(F)F)C3)c2CCC1(F)F [Example 104, (4S)-1-[3-(difluoromethoxymethyl)cyclobutyl]-5,5-difluoro-3-(trifluoromethyl)-6,7-dihydro-4H-indazol-4-ol]	> 1	20	0.1 to 1
O[C@H]1c2c(C(F)(F)F)nn(CCc3ccsc3)c2CC1(F)F [Example 76, (4S)-5,5-difluoro-1-(2-thiophen-3-ylethyl)-3-(trifluoromethyl)-4,6-dihydrocyclopenta[c]pyrazol-4-ol]	> 1	17	0.1 to 1
O=S1(=O)CC2(CC(n3nc(C(F)(F)F)c4c3CC(F)(F)[C@H]4O)C2)C1 [Example 127, (4S)-1-(2,2-dioxo-2λ^6-thiaspiro[3.3]heptan-6-yl)-5,5-difluoro-3-(trifluoromethyl)-4,6-dihydrocyclopenta[c]pyrazol-4-ol]	> 1	3	> 1
O[C@H]1c2c(C(F)(F)F)nn(C3CC4(C3)CC(F)(F)C4)c2CC1(F)F [Example 66, (4S)-1-{6,6-difluorospiro[3.3]heptan-2-yl}-5,5-difluoro-3-(trifluoromethyl)-4,6-dihydrocyclopenta[c]pyrazol-4-ol]	0.1 to 1	6	< 0.1
O[C@H]1c2c(C(F)(F)F)nn([C@@H]3CC[C@@H](F)[C@@H](F)C3)c2[C@H](F)C1(F)F [Example 153, (4S,6S)-1-[(1R,3S,4R)-3,4-difluorocyclohexyl]-5,5,6-trifluoro-3-(trifluoromethyl)-4,6-dihydrocyclopenta[c]pyrazol-4-ol]	> 1	18	0.1 to 1

Now from value to molecule:

IC50 [1] [µM]	Serum Shift (approximate) [1]	IC50 [2] [µM]	Structure (SMILES)
0.1 to 1	2	0.1 to 1	O[C@H]1c2c(C(F)(F)F)nn(CCCOC(F)(F)F)c2C[C@H]1F [Example 62, (4S,5R)-5-fluoro-1-[3-(trifluoromethoxy)propyl]-3-(trifluoromethyl)-5,6-dihydro-4H-cyclopenta[c]pyrazol-4-ol]
0.1 to 1	3	0.1 to 1	O[C@H]1c2c(C(F)(F)F)nn(CCC3CC3(F)F)c2[C@@H](F)[C@H]1F (stereo partly drawn) [Example 152, (4S,5S,6R)-1-[2-(2,2-difluorocyclopropyl)ethyl]-5,6-difluoro-3-(trifluoromethyl)-5,6-dihydro-4H-cyclopenta[c]pyrazol-4-ol]
0.1 to 1	4	< 0.1	O[C@H]1c2c(C(F)(F)F)nn(CCCOC(F)(F)F)c2CC[C@H]1F [Example 120, (4S,5R)-5-fluoro-1-[3-(trifluoromethoxy)propyl]-3-(trifluoromethyl)-4,5,6,7-tetrahydroindazol-4-ol]
0.1 to 1	3	0.1 to 1	O[C@H]1c2c(C(F)(F)F)nn([C@H]3CC[C@H](F)[C@H](F)C3)c2[C@@H](F)[C@H]1F (single isomer, unassigned) [141/142 DIAST-2]
0.1 to 1	2	0.1 to 1	O=S1(=O)CC(Cn2nc(C(F)(F)F)c3c2CC(F)(F)[C@H]3O)C1 [Example 57, (4S)-1-[(1,1-dioxothietan-3-yl)methyl]-5,5-difluoro-3-(trifluoromethyl)-4,6-dihydrocyclopenta[c]pyrazol-4-ol]
0.1 to 1	3	< 0.1	O[C@H]1c2c(C(F)(F)F)nn(C3CC[C@H](F)[C@H](F)C3)c2CC1(F)F (single isomer, unassigned) [72/73 DIAST-2]
0.1 to 1	8	< 0.1	O[C@H]1c2c(C(F)(F)F)nn(CCCOC(F)(F)F)c2CCC1(F)F [Example 30, (4S)-5,5-difluoro-1-[3-(trifluoromethoxy)propyl]-3-(trifluoromethyl)-6,7-dihydro-4H-indazol-4-ol]
0.1 to 1	7	< 0.1	O[C@H]1c2c(C(F)(F)F)nn([C@@H]3C[C@H](F)C[C@H](F)C3)c2CC1(F)F [Example 89, (4S)-1-[(3R,5S)-3,5-difluorocyclohexyl]-5,5-difluoro-3-(trifluoromethyl)-4,6-dihydrocyclopenta[c]pyrazol-4-ol]
0.1 to 1	4	0.1 to 1	O[C@H]1c2c(C(F)(F)F)nn([C@@H]3CC[C@@H](F)[C@@H](F)C3)c2[C@@H](F)[C@H]1F (single isomer, unassigned) [141/142 DIAST-1]
< 0.1	3	< 0.1	O[C@H]1c2c(C(F)(F)F)nn([C@H]3CC[C@H](F)[C@H](F)C3)c2[C@@H](F)C1(F)F [Example 157, (4S,6R)-1-[(1S,3R,4S)-3,4-difluorocyclohexyl]-5,5,6-trifluoro-3-(trifluoromethyl)-4,6-dihydrocyclopenta[c]pyrazol-4-ol]
